Experimental data from patent publication US20050221317A1, “Use of an epitope of vascular endothelial growth factor receptor kdr/flk-1” (AstraZeneca AB, priority 2002, published 2005).

Target: T1, KDR/Flk-1 receptor epitope Y1214 (Homo sapiens, UniProt P35968)
T1 construct: host or cells: HUVEC (human umbilical vein endothelial cells)
Assay: Phosphorylation of the Y1214 epitope of KDR/Flk-1 in VEGF-treated HUVECs (Western blot with anti-Y1214 antibody)
Format: cell-based
Conditions: VEGF-treated HUVEC cell lysate, 0.007-5.0 uM compound, FIG. 1
Procedure: HUVECs were obtained from TCS Cellworks, Buckingham, UK (Catalogue number ZHS 8965) and cultured in Large Vessel Endothelial Cell Basal Medium+recommended 5 supplements obtained from TCS Cellworks (catalogue numbers ZHM 2951 and ZHS 8965). Cells were used when close to confluence in 3×75 cm^2 tissue culture flasks. Prior to treatment with inhibitor cells were cultured overnight in Basal Medium without supplements.
HUVECS were treated with inhibitors as follows. […] After 82 minutes 50 ng/ml VEGF was added to the cells and the cells incubated for a further 8 minutes at 37° C. After this further incubation the culture medium was removed from the cells and the cells lysed with 2.5 ml sample buffer [Sample buffer: 4 parts NuPage sample buffer (Novex, NP0007, Invitrogen, Paisley, Scotland) to 1 part distilled water]. The lysate was collected, 3 μl of β-mercaptoethanol added and heated to 95° C. for 10 minutes to ensure complete reduction and denaturation. The lysates can be stored at −20° C. until analysed.
Lysates were analysed using SDS polyacrylamide gel electrophoresis (PAGE) to separate the proteins within the lysates. […]
Nitrocellulose membranes were incubated for 1 hour in 5% solution of dried, skimmed milk powder in PBST [Marvel/PBST] at room temperature. […] The light from this is detected by photographic film, for example Kodak Biomax ML.

T1 sequence (P35968 20-1356): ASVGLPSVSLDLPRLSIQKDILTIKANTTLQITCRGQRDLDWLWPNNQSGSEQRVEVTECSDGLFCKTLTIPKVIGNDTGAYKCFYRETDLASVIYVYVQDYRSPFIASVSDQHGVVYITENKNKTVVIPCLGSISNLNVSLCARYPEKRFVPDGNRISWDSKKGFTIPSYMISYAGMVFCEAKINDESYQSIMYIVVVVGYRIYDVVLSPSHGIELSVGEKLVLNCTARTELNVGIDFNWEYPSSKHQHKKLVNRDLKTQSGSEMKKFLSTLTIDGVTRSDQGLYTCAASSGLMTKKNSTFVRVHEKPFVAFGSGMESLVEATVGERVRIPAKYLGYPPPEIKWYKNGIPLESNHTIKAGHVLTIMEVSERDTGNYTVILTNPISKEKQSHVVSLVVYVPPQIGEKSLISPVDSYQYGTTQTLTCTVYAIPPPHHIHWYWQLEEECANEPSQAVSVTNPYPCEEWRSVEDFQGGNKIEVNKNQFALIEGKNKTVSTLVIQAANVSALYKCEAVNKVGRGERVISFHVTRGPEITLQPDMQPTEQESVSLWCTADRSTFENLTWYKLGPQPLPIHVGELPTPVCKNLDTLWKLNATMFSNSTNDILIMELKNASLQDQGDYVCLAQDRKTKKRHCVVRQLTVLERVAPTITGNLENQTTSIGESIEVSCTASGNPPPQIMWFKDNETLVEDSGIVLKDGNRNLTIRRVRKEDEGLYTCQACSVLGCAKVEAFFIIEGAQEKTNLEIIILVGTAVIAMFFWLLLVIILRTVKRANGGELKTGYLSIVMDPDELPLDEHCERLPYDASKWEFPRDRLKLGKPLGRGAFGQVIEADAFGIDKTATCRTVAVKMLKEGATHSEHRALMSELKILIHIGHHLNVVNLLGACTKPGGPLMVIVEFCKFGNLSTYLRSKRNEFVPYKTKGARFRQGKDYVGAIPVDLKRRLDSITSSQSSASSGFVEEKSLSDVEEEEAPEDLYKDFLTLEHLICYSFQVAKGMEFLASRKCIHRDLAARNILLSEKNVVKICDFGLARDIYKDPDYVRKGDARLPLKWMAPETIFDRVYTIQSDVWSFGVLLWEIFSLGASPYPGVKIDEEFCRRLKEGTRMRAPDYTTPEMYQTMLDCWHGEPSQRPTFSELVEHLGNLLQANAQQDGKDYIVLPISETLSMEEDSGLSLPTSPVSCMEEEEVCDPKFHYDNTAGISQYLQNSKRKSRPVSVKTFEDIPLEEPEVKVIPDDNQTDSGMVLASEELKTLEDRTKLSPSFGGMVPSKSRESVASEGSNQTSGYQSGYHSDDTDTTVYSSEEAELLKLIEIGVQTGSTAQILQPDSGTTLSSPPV

## COc1cc2c(Oc3ccc4[nH]c(C)cc4c3F)ncnc2cc1OCCCN1CCCCC1 [4[(4-fluoro-2-methyl-1H-indol-5-yl)oxy]-6-methoxy-7-(3-piperidin-1-ylpropoxy)quinazoline]
  phosphorylation of the Y1214 epitope: dose dependent decrease in phosporylation
